The target of data set [1] is Lysozyme C (Gallus gallus) (UniProt P00698). Put plainly: Inhibition of hen egg white lysozyme fibrillization at 2 x 10^-4 M up to 100 hrs by Thioflavin T-based fluorescence assay.
For data set [2] the target is unchanged. Put plainly: Inhibition of beta-sheet aggregation of hen egg white lysozyme at 2 x 10^-4 M after 15 days by FT-IR spectroscopic analysis.
Data set [3] shares this target. The data set can be described thus: Inhibition of hen egg white lysozyme fibrillization at 2 x 10^-4 M after 2 weeks by congo red dye-based UV/Vis spectroscopic analysis.
Data set [4] has the same target. The data set can be described thus: Binding affinity to hen egg white lysozyme assessed as formation of enzyme/compound complex formation at 2 x 10^-4 M by TCSPC spectroscopic analysis.
Data set [5] has the same target. Put plainly: Binding affinity to hen egg white lysozyme at 2 x 10^-4 M by UV/Vis spectroscopic analysis.
The target is the same in data set [6]. Put plainly: Binding affinity to hen egg white lysozyme at 2 x 10^-4 M by fluorescence spectroscopic analysis.
For data set [7] the target is unchanged. The data set can be described thus: Inhibition of beta-sheet aggregation of hen egg white lysozyme at 2 x 10^-4 M after 15 days by CD spectroscopic analysis.
The target is the same in data set [8]. Put plainly: Inhibition of hen egg white lysozyme fibrillization at 2 x 10^-4 M after 15 days by congo red dye-based crossed polarized optical microscopic analysis.
The nature of data set [9]: Cytotoxicity against neuronal cells (unknown origin) by MTT assay. The class given is cell-based. The settings on record: neuron. In general terms: Tetrazolium dyes change colour on reduction, which living cells bring about.
The target in data set [10] is Lysozyme C (Gallus gallus) (UniProt P00698). Put plainly: Inhibition of hen egg white lysozyme fibrillization assessed as diameter of granular aggregate at 2 x 10^-4 M after 15 days by atomic force microscopic analysis (reference value: 50 to 80 nm).

The record followed here is ChEMBL document CHEMBL3217545, “Synthesis and study of 2-acetyl amino-3-[4-(2-amino-5-sulfo-phenylazo)-phenyl]-propionic acid: a new class of inhibitor for hen egg white lysozyme amyloidogenesis” (Medchemcomm, 2013).

Calls of active or inactive are those of the source. The calls are words filed in the database; no cut-off is given here.

Sequence of Lysozyme C (Gallus gallus) (P00698 whole entry): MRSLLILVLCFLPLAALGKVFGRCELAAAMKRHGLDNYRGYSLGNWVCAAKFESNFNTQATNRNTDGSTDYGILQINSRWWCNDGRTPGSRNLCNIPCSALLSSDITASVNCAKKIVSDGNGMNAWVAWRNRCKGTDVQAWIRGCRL

For the compound `CC(=O)N[C@@H](Cc1ccc(/N=N/c2cc(S(=O)(=O)O)ccc2N)cc1)C(=O)O`, the inhibition entry in data set [1], in [2], in data set [3], in [7] and in [8] was “Active” each time. Besides, the outcome in data set [4], in data set [5] and in [6] was Active. Further, the Activity entry was “Non-toxic” in [9] and 100 nm in data set [10].
`Nc1ccc(S(=O)(=O)O)cc1/N=N/c1ccc(C[C@H](NC(=O)C(F)(F)F)C(=O)O)cc1`: the inhibition entry in data set [1], in data set [2], in [3], in data set [7] and in data set [8] was “Active” in each case. For the same compound, the outcome in data set [4], in data set [5] and in data set [6] was Active. Besides, the Activity entry in [9] is “Non-toxic”; in [10], 100 nm.
